Read-outs that look alike come from different tables or passages of the source.
Experiments:
[1] = test system: MKN45 gastric cancer cell line; test: Assay of inhibitory effect on cell proliferation (CellTiter-Glo); type: cell-based; conditions: Homo sapiens, MKN-45, 72 h, read-out: MKN45 cell IC50
Text: Assay Example 2: Assay of Inhibitory Effect on Cell Proliferation
1. cell culture: DMEM medium, fetal bovine serum, DPBS
2. cell line: MKN45 gastric cancer cell line
3. detection reagent: live cell detection kit CellTiter-Glo
4. other main materials and reagents: compound dilution plate, middle plate, detection plate, DMSO
The content of ATP directly reflects the number and state of cells. By quantitation of ATP, the number of living cells can be detected. The living cell detection kit contains luciferase and its substrate. Through the participation of ATP, the luciferase can catalyze the substrate to emit a stable light signal. The number of ATP in the cells was determined by detecting the intensity of the signal. The light signal was directly proportional to the number of ATP in the cells, while ATP was positively correlated with the number of living cells, so that the proliferation of cells can be detected. The test plate was analyzed using Envision from PE Inc.
1. Preparation of the Cell Plate
The MKN45 cells were seeded into a 384-well plate with 200 cells per well. The cell plate was placed in a carbon dioxide incubator and incubated overnight.
2. Preparation of Compounds
Compounds were subject to a 5-fold serial dilution with Echo to obtain nine concentrations, in duplicate.
3. Treatment of Cells with Compounds
The compounds were transferred to the cell plate at an initial concentration of […]. The cell plate was placed in a carbon dioxide incubator and incubated for three days.
A Promega CellTiter-Glo reagent was added to the cell plate and incubated at room temperature for 10 minutes to stabilize the luminescence signal. A PerkinElmer Envision multi-label analyzer was used for reading.

MHCC97H cell = conditions: read-out: MHCC97H cell IC50; cited from earlier work
[2] = test system: MKN45 gastric cancer cells; test: Drug efficacy in a model with subcutaneous xenograft tumor of MKN45 gastric cancer cells; type: in vivo, BALB/c nude mice; conditions: day 14 after administration; for Tumor volume (Day 14): Mean ± SEM
Description: Assay Example 3: Assay of Drug Efficacy in a Model with Subcutaneous Xenograft Tumor of MKN45 Gastric Cancer Cells
MKN45 cells were cultured in vitro in monolayer. The culture conditions were RPMI1640 medium plus 10% heat-inactivated fetal bovine serum, 1% penicillin-streptomycin, 37° C., and 5% CO2. The passaging was carried out by conventional digestion with trypsin-EDTA twice a week. When the cells were in the exponential growth phase, the cells were collected, counted, and inoculated.
(§1) BALB/c nude mice, male, 6-8 weeks old, weighted 18-22 grams.
0.2 ml of a suspension containing 5×10^6 MKN45 cells was inoculated subcutaneously on the right back of each mouse. When the average volume of the tumor reached about 160 mm^3, administration to each group was started.
(§2) Assay index: the assay index is to investigate whether the tumor growth is inhibited, delayed or cured. Tumor diameter was measured twice a week with a vernier caliper. The calculation formula of tumor volume is: V=0.5a×b^2, wherein a and b represent the long and short diameters of the tumor, respectively. The anti-tumor efficacy (TGI) of the compound was evaluated by T-C (day) and T/C (%).
Assay results: See Table 3.

[3] = test system: Hs746t gastric cancer cells; test: Drug efficacy in a model with subcutaneous xenograft tumor of Hs746t gastric cancer cells; type: in vivo, BALB/c nude mice; conditions: for Tumor volume (Day 0): Day 0, Mean ± SEM; for Tumor volume (Day 20): Day 20, Mean ± SEM
Description: Assay Example 4: Assay of Drug Efficacy in a Model with Subcutaneous Xenograft Tumor of Hs746t Gastric Cancer Cells
Human gastric cancer Hs746t cells were cultured in vitro in monolayer. The culture conditions were DMEM medium plus 10% fetal bovine serum, 100 U/mL penicillin and 100 U/mL streptomycin, 37° C., 5% CO2 incubator. The passaging was carried out by conventional digestion with trypsin-EDTA twice a week. When the cell saturation was 80%-90%, and the number met the requirements, the cells were collected, counted, and inoculated.
as §1
0.2 mL (2×10^6, cells:Matrigel=1:1) of HS 746T cells were subcutaneously inoculated on the right back of each mouse. When the average tumor volume reached about 100-150 mm^3, administration to each group was started.
as §2, with “index: The” for “index: the”, “whether” for “whether the”
Assay results: See Table 4.

[4] = three days incubation, CellTiter-Glo

Question: With O=C(Nc1ccc(Oc2ccnc(NC(=O)N3CCOCC3)c2)c(F)c1)c1cn(CC2CC2)c(=O)n(-c2ccc(F)cc2)c1=O [Example 13] as the compound, how does the IC50 [1] read?
Answer: Its IC50 is 38 nM.

Question: For CN1CCC(COc2cnc(-c3cccc(Cn4nc(-c5cccc(C#N)c5)ccc4=O)c3)nc2)CC1 [Tepotinib], which IC50 (MHCC97H cell) is on record?
Answer: The IC50 was 6.2 nM.

Question: For NC(=O)Nc1cc(Oc2ccc(NC(=O)c3cn(CC4CC4)c(=O)n(-c4ccc(F)cc4)c3=O)cc2F)ccn1 [Example 16], which IC50 [1] is on record?
Answer: Its IC50 is 50.7 nM.

Question: What does the source list for Nc1nccc(Oc2ccc(NC(=O)c3cn(CC4CC4)c(=O)n(-c4ccc(F)cc4)c3=O)cc2F)c1Cl [Example 5]?
Answer: IC50 [1]: 11 nM; T/C [2]: 15.3%; TGI [2]: 96.9%; Tumor volume (Day 14) [2]: 196 ± 17 mm^3; TGI ([3]; 4.5 mpk): 104.43%; Tumor volume (Day 0) ([3]; 4.5 mpk): 126 ± 10 mm^3; T/C (Day 20) ([3]; 4.5 mpk): 0.78%; Tumor volume (Day 20) ([3]; 4.5 mpk): 20 ± 8 mm^3; TGI ([3]; 9 mpk): 105.01%; Tumor volume (Day 0) ([3]; 9 mpk): 127 ± 10 mm^3; T/C (Day 20) ([3]; 9 mpk): 0.00%; Tumor volume (Day 20) ([3]; 9 mpk): 0 ± 0 mm^3

Question: With Nc1nccc(Oc2ccc(NC(=O)c3cn(CC4CC4(F)F)c(=O)n(-c4ccc(F)cc4)c3=O)cc2F)c1Cl (stereo not shown) [Example 3] as the compound, how does the IC50 [1, 4] read?
Answer: Its IC50 is 27 nM.

Question: For Nc1nccc(Oc2ccc(NC(=O)c3c4n(c(=O)n(-c5ccc(F)cc5)c3=O)CCC4)cc2F)c1Cl [Example 12], which IC50 [1, 4] is on record?
Answer: The IC50 was 315 nM.

Question: With Cc1[nH]c(=O)n(-c2ccc(F)cc2)c(=O)c1C(=O)Nc1ccc(Oc2ccnc(N)c2Cl)c(F)c1 [Example 11] as the compound, how does the IC50 [1] read?
Answer: The IC50 was 240 nM.

Question: Which IC50 [1] does the source give for O=C(Nc1ccc(Oc2ccnc(NC(=O)N3CCC3)c2)c(F)c1)c1cn(CC2CC2)c(=O)n(-c2ccc(F)cc2)c1=O [Example 18] here?
Answer: Its IC50 is 12.1 nM.

Question: Which TGI ([3]; 4.5 mpk) does the source give for Cc1ccc(C(=O)Nc2ccc(Oc3cc4cnn(C)c4cc3-c3cn[nH]c3)c(F)c2)c(=O)n1-c1ccc(F)cc1 [LY2801653, reference compound] here?
Answer: Its TGI is 101.62%.

Question: What about the “Tumor volume (Day 0)” value ([3]; 4.5 mpk) of the same compound?
Answer: The value was 127 ± 12 mm^3.

Question: And the “T/C (Day 20)” value ([3]; 4.5 mpk)?
Answer: The value was 3.45%.

Question: And the “Tumor volume (Day 20)” value ([3]; 4.5 mpk)?
Answer: Its value is 88 ± 13 mm^3.

Question: With O=C(Nc1ccc(Oc2ccnc(NC(=O)N3CCCC3)c2)c(F)c1)c1cn(CC2CC2)c(=O)n(-c2ccc(F)cc2)c1=O [Example 20] as the compound, how does the IC50 [1] read?
Answer: Its IC50 is 29.1 nM.

Question: With CCOc1ccn(-c2ccc(F)cc2)c(=O)c1C(=O)Nc1ccc(Oc2ccnc(N)c2Cl)c(F)c1 [BMS777607, reference compound] as the compound, how does the IC50 [1, 4] read?
Answer: Its IC50 is 436 nM.

Question: What about the TGI ([3]; 4.5 mpk) of the same compound?
Answer: The TGI was 27.61%.

Question: And the “Tumor volume (Day 0)” value ([3]; 4.5 mpk)?
Answer: The value was 127 ± 11 mm^3.

Question: And the “T/C (Day 20)” value ([3]; 4.5 mpk)?
Answer: The value was 73.58%.

Question: What about the “Tumor volume (Day 20)” value ([3]; 4.5 mpk) of the same compound?
Answer: Its value is 1872 ± 355 mm^3.

Question: Which IC50 [1] does the source give for C=CCn1cc(C(=O)Nc2ccc(Oc3ccnc(N)c3Cl)c(F)c2)c(=O)n(-c2ccc(F)cc2)c1=O [Example 2] here?
Answer: Its IC50 is 78 nM.

Question: For CN(C)C(=O)Nc1cc(Oc2ccc(NC(=O)c3cn(CC4CC4)c(=O)n(-c4ccc(F)cc4)c3=O)cc2F)ccn1 [Example 17], which TGI ([3]; 1.5 mpk) is on record?
Answer: Its TGI is 74.16%.

Question: What about the “Tumor volume (Day 0)” value ([3]; 1.5 mpk) of the same compound?
Answer: The value was 127 ± 12 mm^3.

Question: And the “T/C (Day 20)” value ([3]; 1.5 mpk)?
Answer: Its value is 30.68%.

Question: And the “Tumor volume (Day 20)” value ([3]; 1.5 mpk)?
Answer: Its value is 780 ± 195 mm^3.

Question: What about the TGI ([3]; 4.5 mpk) of the same compound?
Answer: The TGI was 104.82%.

Question: And the “Tumor volume (Day 0)” value ([3]; 4.5 mpk)?
Answer: The value was 127 ± 13 mm^3.

Question: And the “T/C (Day 20)” value ([3]; 4.5 mpk)?
Answer: Its value is 0.15%.

Question: What about the “Tumor volume (Day 20)” value ([3]; 4.5 mpk) of the same compound?
Answer: The value was 4 ± 2 mm^3.

Question: And the TGI ([3]; 9 mpk)?
Answer: Its TGI is 105.02%.

Question: And the “Tumor volume (Day 0)” value ([3]; 9 mpk)?
Answer: The value was 127 ± 9 mm^3.

Question: What about the “T/C (Day 20)” value ([3]; 9 mpk) of the same compound?
Answer: Its value is 0.00%.

Question: And the “Tumor volume (Day 20)” value ([3]; 9 mpk)?
Answer: The value was 0 ± 0 mm^3.

Question: Which IC50 [1] does the source give for Nc1nccc(Oc2ccc(NC(=O)c3cn(CC(F)F)c(=O)n(-c4ccc(F)cc4)c3=O)cc2F)c1Cl [Example 9] here?
Answer: Its IC50 is 365 nM.

Question: With CC(C)Cn1cc(C(=O)Nc2ccc(Oc3ccnc(N)c3Cl)c(F)c2)c(=O)n(-c2ccc(F)cc2)c1=O [Example 8] as the compound, how does the IC50 [1, 4] read?
Answer: The IC50 was 374 nM.

Question: For CC(C)n1cc(C(=O)Nc2ccc(Oc3ccnc(N)c3Cl)c(F)c2)c(=O)n(-c2ccc(F)cc2)c1=O [Example 1], which IC50 [1] is on record?
Answer: Its IC50 is 54 nM.

Question: And the T/C [2]?
Answer: Its T/C is 16.5%.

Question: What about the TGI [2] of the same compound?
Answer: The TGI was 95.1%.

Question: What about the “Tumor volume (Day 14)” value [2] of the same compound?
Answer: The value was 218 ± 31 mm^3.

Question: Which IC50 [1] does the source give for N#Cc1c(Oc2ccc(NC(=O)c3cn(CC4CC4)c(=O)n(-c4ccc(F)cc4)c3=O)cc2F)ccnc1N [Example 14] here?
Answer: The IC50 was 30 nM.
